According to ChEMBL document CHEMBL1151339, “Antitumor agents from bohemic acid complex, III. The isolation of marcellomycin, musettamycin, rudolphomycin, mimimycin, collinemycin, alcindoromycin, and bohemamine” (J Nat Prod, 1980):
Converted amounts (≈) assume the structure as drawn.

Legend:
Mus musculus [1] = experiment: Toxicity in BDF1 mouse xenografted with mouse B16 cells assessed as survival at 1.6 mg/kg after 5 days; assay type: organism-based; parameters: dose 1.6 mg/kg
Candida tropicalis = experiment: Antifungal activity against Candida tropicalis A15051 by 2-fold tube dilution method; assay type: functional
Escherichia coli = experiment: Antibacterial activity against Escherichia coli A20341-1 by 2-fold tube dilution method; assay type: functional
Mus musculus [2] = experiment: Toxicity in BDF1 mouse xenografted with mouse L1210 cells assessed as survival at 6.4 mg/kg, ip after 5 days; assay type: organism-based; parameters: dose 6.4 mg/kg, route intraperitoneal; conditions: in vivo, 120 h
B16 [3] = experiment: Antitumor activity against mouse B16 cells xenografted in BDF1 mouse assessed as median survival time at 0.025 mg/kg; assay type: functional
Candida albicans [4] = experiment: Antifungal activity against Candida albicans A-9540 by 2-fold tube dilution method; assay type: functional
Mus musculus [5] = experiment: Toxicity in BDF1 mouse xenografted with mouse B16 cells assessed as survival at 0.4 mg/kg after 5 days; assay type: organism-based; parameters: dose 0.4 mg/kg
Pichia kudriavzevii = experiment: Antifungal activity against Candida krusei A15052 by 2-fold tube dilution method; assay type: functional
Enterobacter cloacae = experiment: Antibacterial activity against Enterobacter cloacae A-9659 by 2-fold tube dilution method; assay type: functional
B16 [6] = experiment: Antitumor activity against mouse B16 cells xenografted in BDF1 mouse assessed as median survival time at 0.2 mg/kg; assay type: functional
Microsporum canis = experiment: Antifungal activity against Microsporum canis A-9872 by 2-fold tube dilution method; assay type: functional
L1210 [7] = experiment: Antitumor activity against mouse L1210 cells xenografted in BDF1 mouse assessed as median survival time at 0.4 mg/kg, ip; assay type: functional; conditions: route intraperitoneal
L1210 [8] = experiment: Antitumor activity against mouse L1210 cells xenografted in BDF1 mouse assessed as change in tumor average weight at 3.2 mg/kg, ip; assay type: functional; conditions: route intraperitoneal
L1210 [9] = experiment: Antitumor activity against mouse L1210 cells xenografted in BDF1 mouse assessed as median survival time at 3.2 mg/kg, ip; assay type: functional; conditions: route intraperitoneal
Mus musculus [10] = experiment: Toxicity in BDF1 mouse xenografted with mouse B16 cells assessed as survival at 0.1 mg/kg after 5 days; assay type: organism-based; parameters: dose 0.1 mg/kg
B16 [11] = experiment: Antitumor activity against mouse B16 cells xenografted in BDF1 mouse assessed as median survival time at 0.1 mg/kg; assay type: functional
B16 [12] = experiment: Antitumor activity against mouse B16 cells xenografted in BDF1 mouse at 0.8 mg/kg relative to control; assay type: functional
L1210 [13] = experiment: Antitumor activity against mouse L1210 cells xenografted in BDF1 mouse at 0.4 mg/kg, ip relative to control; assay type: functional; conditions: route intraperitoneal
Enterococcus faecalis = experiment: Antibacterial activity against Streptococcus faecalis A20688 by 2-fold tube dilution method; assay type: functional
Streptococcus pyogenes = experiment: Antibacterial activity against Streptococcus pyogenes A-9604 by 2-fold tube dilution method; assay type: functional
L1210 [14] = experiment: Antitumor activity against mouse L1210 cells xenografted in BDF1 mouse at 1.6 mg/kg, ip relative to control; assay type: functional; conditions: route intraperitoneal
B16 [15] = experiment: Antitumor activity against mouse B16 cells xenografted in BDF1 mouse assessed as change in tumor average weight at 0.4 mg/kg; assay type: functional
B16 [16] = experiment: Antitumor activity against mouse B16 cells xenografted in BDF1 mouse at 1.6 mg/kg relative to control; assay type: functional
Mus musculus [17] = experiment: Toxicity in BDF1 mouse xenografted with mouse B16 cells assessed as survival at 0.8 mg/kg after 5 days; assay type: organism-based; parameters: dose 0.8 mg/kg
Mus musculus [18] = experiment: Toxicity in BDF1 mouse xenografted with mouse B16 cells assessed as survival at 0.025 mg/kg after 5 days; assay type: organism-based; parameters: dose 0.025 mg/kg
L1210 [19] = experiment: Antitumor activity against mouse L1210 cells xenografted in BDF1 mouse assessed as median survival time at 1.6 mg/kg, ip; assay type: functional; conditions: route intraperitoneal
Klebsiella pneumoniae = experiment: Antibacterial activity against Klebsiella pneumoniae A15130 by 2-fold tube dilution method; assay type: functional
B16 [20] = experiment: Antitumor activity against mouse B16 cells xenografted in BDF1 mouse at 3.2 mg/kg relative to control; assay type: functional
Streptococcus pneumoniae = experiment: Antibacterial activity against Streptococcus pneumoniae A-9585 by 2-fold tube dilution method; assay type: functional
B16 [21] = experiment: Antitumor activity against mouse B16 cells xenografted in BDF1 mouse assessed as median survival time at 1.6 mg/kg; assay type: functional
L1210 [22] = experiment: Antitumor activity against mouse L1210 cells xenografted in BDF1 mouse assessed as change in tumor average weight at 0.8 mg/kg, ip; assay type: functional; conditions: route intraperitoneal
Mus musculus [23] = experiment: Toxicity in BDF1 mouse xenografted with mouse B16 cells assessed as survival at 0.05 mg/kg after 5 days; assay type: organism-based; parameters: dose 0.05 mg/kg
B16 [24] = experiment: Antitumor activity against mouse B16 cells xenografted in BDF1 mouse assessed as change in tumor average weight at 3.2 mg/kg; assay type: functional
L1210 [25] = experiment: Antitumor activity against mouse L1210 cells xenografted in BDF1 mouse assessed as change in tumor average weight at 1.6 mg/kg, ip; assay type: functional; conditions: route intraperitoneal
Staphylococcus aureus = experiment: Antibacterial activity against Staphylococcus aureus A-9497 by 2-fold tube dilution method; assay type: functional
B16 [26] = experiment: Antitumor activity against mouse B16 cells xenografted in BDF1 mouse assessed as change in tumor average weight at 0.8 mg/kg; assay type: functional
B16 [27] = experiment: Antitumor activity against mouse B16 cells xenografted in BDF1 mouse assessed as median survival time at 0.05 mg/kg; assay type: functional
Candida albicans [28] = experiment: Antifungal activity against Candida albicans A15050 by 2-fold tube dilution method; assay type: functional
Pseudomonas aeruginosa = experiment: Antibacterial activity against Pseudomonas aeruginosa A-9843A by 2-fold tube dilution method; assay type: functional
B16 [29] = experiment: Antitumor activity against mouse B16 cells xenografted in BDF1 mouse at 0.05 mg/kg relative to control; assay type: functional
B16 [30] = experiment: Antitumor activity against mouse B16 cells xenografted in BDF1 mouse at 0.1 mg/kg relative to control; assay type: functional
Proteus vulgaris = experiment: Antibacterial activity against Proteus vulgaris A21559 by 2-fold tube dilution method; assay type: functional
B16 [31] = experiment: Antitumor activity against mouse B16 cells xenografted in BDF1 mouse at 0.4 mg/kg relative to control; assay type: functional
L1210 [32] = experiment: Antitumor activity against mouse L1210 cells xenografted in BDF1 mouse at 0.8 mg/kg, ip relative to control; assay type: functional; conditions: route intraperitoneal
B16 [33] = experiment: Antitumor activity against mouse B16 cells xenografted in BDF1 mouse assessed as median survival time at 0.4 mg/kg; assay type: functional
B16 [34] = experiment: Antitumor activity against mouse B16 cells xenografted in BDF1 mouse at 0.2 mg/kg relative to control; assay type: functional
B16 [35] = experiment: Antitumor activity against mouse B16 cells xenografted in BDF1 mouse assessed as change in tumor average weight at 0.2 mg/kg; assay type: functional
Serratia marcescens = experiment: Antibacterial activity against Serratia marcescens A20019 by 2-fold tube dilution method; assay type: functional
L1210 [36] = experiment: Antitumor activity against mouse L1210 cells xenografted in BDF1 mouse at 3.2 mg/kg, ip relative to control; assay type: functional; conditions: route intraperitoneal
B16 [37] = experiment: Antitumor activity against mouse B16 cells xenografted in BDF1 mouse at 0.025 mg/kg relative to control; assay type: functional
Mus musculus [38] = experiment: Toxicity in BDF1 mouse xenografted with mouse L1210 cells assessed as survival at 0.4 mg/kg, ip after 5 days; assay type: organism-based; parameters: dose 0.4 mg/kg, route intraperitoneal; conditions: in vivo, 120 h
L1210 [39] = experiment: Antitumor activity against mouse L1210 cells xenografted in BDF1 mouse assessed as change in tumor average weight at 0.4 mg/kg, ip; assay type: functional; conditions: route intraperitoneal

CC[C@@]1(O)C[C@H](O[C@H]2C[C@H](N(C)C)[C@H](O[C@H]3C[C@H](O)[C@H](O[C@@H]4O[C@@H](C)C(=O)C=C4N)[C@@H](C)O3)[C@@H](C)O2)c2c(cc3c(c2O)C(=O)c2c(O)ccc(O)c2C3=O)[C@H]1C(=O)OC [RUDOLPHOMYCIN]
AC50 (Mus musculus [1]): Non-toxic | MIC (Candida tropicalis): > 16 µg/mL | MIC (Escherichia coli): > 125 µg/mL | Activity (Mus musculus [2]): Toxic | Activity (B16 [3]): 22.5 days | MIC (Candida albicans [4]): > 16 µg/mL | AC50 (Mus musculus [5]): Non-toxic | MIC (Pichia kudriavzevii): > 16 µg/mL | MIC (Enterobacter cloacae): > 125 µg/mL | Activity (B16 [6]): 26 days | MIC (Microsporum canis): > 16 µg/mL | Activity (L1210 [7]): 8 days | Activity (L1210 [8]): -2.2 g | Activity (L1210 [9]): 8 days | AC50 (Mus musculus [10]): Non-toxic | Activity (B16 [11]): 27.5 days | T/C (B16 [12]): 145% | T/C (L1210 [13]): 107% | MIC (Enterococcus faecalis): 1 µg/mL (≈ 1.19 µM) | MIC (Streptococcus pyogenes): 0.25 µg/mL (≈ 0.297 µM) | T/C (L1210 [14]): 133% | Activity (B16 [15]): -0.8 g | T/C (B16 [16]): 160% | AC50 (Mus musculus [17]): Non-toxic | AC50 (Mus musculus [18]): Non-toxic | Activity (L1210 [19]): 10 days | MIC (Klebsiella pneumoniae): > 125 µg/mL | T/C (B16 [20]): 115% | MIC (Streptococcus pneumoniae): 0.06 µg/mL (≈ 0.0714 µM) | Activity (B16 [21]): 32 days | Activity (L1210 [22]): -1.6 g | AC50 (Mus musculus [23]): Non-toxic | Activity (B16 [24]): -0.3 g | Activity (L1210 [25]): -1.2 g | MIC (Staphylococcus aureus): 1 µg/mL (≈ 1.19 µM) | Activity (B16 [26]): -0.2 g | Activity (B16 [27]): 22 days | MIC (Candida albicans [28]): > 16 µg/mL | MIC (Pseudomonas aeruginosa): > 125 µg/mL | T/C (B16 [29]): 110% | T/C (B16 [30]): 138% | MIC (Proteus vulgaris): > 125 µg/mL | T/C (B16 [31]): 133% | T/C (L1210 [32]): 120% | Activity (B16 [33]): 26.5 days | T/C (B16 [34]): 130% | Activity (B16 [35]): -1 g | MIC (Serratia marcescens): > 125 µg/mL | T/C (L1210 [36]): 107% | T/C (B16 [37]): 113% | Activity (Mus musculus [38]): Non-toxic | Activity (L1210 [39]): 0.9 g
